Test results: patent US12396459B2, “Synergistically effective herbicide composition comprising pyridate and at least one defined 4-HPPD inhibitor” (BELCHIM CROP PROTECTION NV, priority 2018, dated 2025)

How the values were obtained:
Assay type in all cases: in vivo
Chenopodium album = test: Examples 6-8 herbicidal effect: CHEAL; settings: 7 DAA
Geranium sp. = test: Field trial post-emergence in maize: GERSS; settings: # = 1, g a.c./ha: PYR 300, MES 100, PYR + MES 300 + 90
Method: (§1) Herbicidal activity of herbicide compositions according to the first aspect of the present invention with regard to different types of unwanted vegetation was determined during trials performed on test fields (field trials). Individual compositions comprising pyridate and individual compositions comprising a defined 4-HPPD inhibitor are compared with a herbicide composition according to the invention comprising both pyridate and a defined 4-HPPD inhibitor. The expected activity of the combination of the active compounds pyridate and a defined 4-HPPD inhibitor is calculated according to above mentioned calculation method by Colby, in order to evaluate a synergistic effect between pyridate and a defined 4-HPPD inhibitor.
(§2) Herbicidal activity was determined by applying herbicide compositions on emerged unwanted vegetation on fields where maize was cultivated. Pyridate and a defined 4-HPPD inhibitor were applied as a tank mixture by mixing these active compounds prior to use in a spray tank. The corresponding mixture was in the form of a spray liquor. Besides, spray liquors of individual compositions comprising pyridate and of individual compositions comprising a defined 4-HPPD inhibitor were used. Test plants of unwanted vegetation with a growth stage corresponding to BBCH 10-18 (according to the extended BBCH-scale) were sprayed with the active compound preparations such that particular desired amounts of active compounds are applied per unit area. Spray liquor was diluted with water to arrive at an application volume of 50 to 450 L/ha. At a specified number of days after application (DAA), the degree of damage to the unwanted vegetation is rated in % of plants of unwanted vegetation that were killed, which was assessed by visually controlling the plants.

Veronica persica [1] = test: Examples 6-8 herbicidal effect: VERPE; settings: 7 DAA
Erodium ciconium = test: Field trial post-emergence in maize: EROCC
Method: as §1, §2
(§3) Example 1 concerns a herbicide composition comprising a combination of pyridate and mesotrione, which was applied post-emergence on unwanted vegetation on a field where maize was cultivated, according to the test conditions mentioned above.

Capsella bursa-pastoris = test: Field trial post-emergence in maize: CAPBP
Method: as §1, §2

Fallopia convolvulus = test: Field trial post-emergence in maize: POLCO
Method: as §1, §2

Hibiscus ternatus = test: Field trial post-emergence in maize: HIBTR; settings: 7-14 DAA; # = 2; g a.c./ha: PYR 300, MES 100, PYR + MES 300 + 90
Method: as §1
(§4) Herbicidal activity was determined by applying herbicide compositions on emerged unwanted vegetation on fields where maize was cultivated. Pyridate and a defined 4-HPPD inhibitor were applied as a tank mixture by mixing these active compounds prior to use in a spray tank. The corresponding mixture was in the form of a spray liquor. […] At a specified number of days after application (DAA), the degree of damage to the unwanted vegetation is rated in % of plants of unwanted vegetation that were killed, which was assessed by visually controlling the plants.

Digitaria sanguinalis = test: Examples 6-8 herbicidal effect: DIGSA; settings: 7 DAA
Rumex obtusifolius = test: Field trial post-emergence in maize: RUMOB
Method: as §1, §2, §3

Portulaca oleracea = test: Field trial post-emergence in maize: POROL; settings: # = 1, g a.c./ha: PYR 300, MES 100, PYR + MES 300 + 90
Method: as §1, §2

Stachys arvensis = test: Field trial post-emergence in maize: STAAR; settings: 7-14 DAA; # = 1; g a.c./ha: PYR 300, MES 100, PYR + MES 300 + 90
Method: as §1, §4

Echinochloa crus-galli = test: Field trial post-emergence in maize: ECHCG; settings: for herbicidal effect (h.e.): g a.c./ha: PYR 300, MES 100, PYR + MES 300 + 90
Method: as §1, §2

Setaria verticillata = test: Field trial post-emergence in maize: SETVE
Method: as §1, §2, §3

Cirsium arvense = test: Field trial post-emergence in maize: CIRAR; settings: # = 1, g a.c./ha: PYR 300, MES 100, PYR + MES 300 + 90
Method: as §1, §2

Sinapis arvensis = test: Field trial post-emergence in maize: SINAR; settings: 13-14 DAA; # = 1; g a.c./ha: PYR 450, TOP 12.4, PYR + TOP 450 + 12.4
Method: as §1, §4

Bassia scoparia = test: Field trial post-emergence in maize: KCHSC; settings: 13-14 DAA; # = 2; g a.c./ha: PYR 450, TEM 38, PYR + TEM 450 + 38
Method: as §1, §4

Veronica persica [2] = test: Field trial post-emergence in maize: VERPE; settings: for herbicidal effect (h.e.): g a.c./ha: PYR 300, MES 100, PYR + MES 300 + 90
Method: as §1, §2

[3] = g a.c./ha: PYR 10, TEM 22, PYR + TEM 10 + 100
[4] = g a.c./ha: PYR 300, PYR + MES 300 + 80
[5] = g a.c./ha: PYR 300, SCT 300, PYR + SCT 300 + 300
[6] = g a.c./ha: PYR 300, TEM 100, PYR + TEM 300 + 100
[7] = g a.c./ha: PYR 450, SCT 450, PYR + SCT 300 + 450
[8] = g a.c./ha: PYR 600, PYR + SCT 600 + 300
[9] = g a.c./ha: PYR 900, TEM 44, PYR + TEM 900 + 44

## CCCCCCCCSC(=O)Oc1cc(Cl)nnc1-c1ccccc1 [PYR, (6-chloro-3-phenylpyridazin-4-yl) octylsulfanylformate]
Chenopodium album; [3]
  herbicidal effect (h.e.): 0%
Chenopodium album; [4]
  herbicidal effect (h.e.): 6%
Chenopodium album; [5]
  herbicidal effect (h.e.): 3%
Chenopodium album; [6]
  herbicidal effect (h.e.): 5%
Chenopodium album; [7]
  herbicidal effect (h.e.): 10%
Chenopodium album; [8]
  herbicidal effect (h.e.): 22%
Chenopodium album; [9]
  herbicidal effect (h.e.): 90%
Geranium sp.; 7-14 DAA
  herbicidal effect (h.e.): 13%
Geranium sp.; 18-28 DAA
  herbicidal effect (h.e.): 0%
Geranium sp.; 31-48 DAA
  herbicidal effect (h.e.): 0%
Veronica persica [1]; [3]
  herbicidal effect (h.e.): 0%
Veronica persica [1]; [4]
  herbicidal effect (h.e.): 8%
Veronica persica [1]; [5]
  herbicidal effect (h.e.): 10%
Veronica persica [1]; [6]
  herbicidal effect (h.e.): 10%
Veronica persica [1]; [7]
  herbicidal effect (h.e.): 15%
Veronica persica [1]; [8]
  herbicidal effect (h.e.): 10%
Veronica persica [1]; [9]
  herbicidal effect (h.e.): 50%
Erodium ciconium; EROCC 14-20 DAA 300 g a.c./ha
  PYR h.e.: 89%
Erodium ciconium; EROCC 14-20 DAA 600 g a.c./ha
  PYR h.e.: 96%
Capsella bursa-pastoris; 7-14 DAA, # = 3, g a.c./ha: PYR 300, MES 100, PYR + MES 300 + 90
  herbicidal effect (h.e.): 51%
Capsella bursa-pastoris; CAPBP 14-20 DAA 300 g a.c./ha
  PYR h.e.: 59%
Capsella bursa-pastoris; CAPBP 14-20 DAA 600 g a.c./ha
  PYR h.e.: 65%
Capsella bursa-pastoris; CAPBP 14-20 DAA 900 g a.c./ha
  PYR h.e.: 73%
Capsella bursa-pastoris; CAPBP 24-31 DAA 300 g a.c./ha
  PYR h.e.: 53%
Capsella bursa-pastoris; CAPBP 24-31 DAA 600 g a.c./ha
  PYR h.e.: 61%
Capsella bursa-pastoris; CAPBP 24-31 DAA 900 g a.c./ha
  PYR h.e.: 73%
Fallopia convolvulus; 7-14 DAA, # = 5, g a.c./ha: PYR 300, MES 100, PYR + MES 300 + 90
  herbicidal effect (h.e.): 26%
Fallopia convolvulus; 13-14 DAA, # = 1, g a.c./ha: PYR 450, MES 144, PYR + MES 450 + 144
  herbicidal effect (h.e.): 23%
Fallopia convolvulus; 18-28 DAA, # = 8, g a.c./ha: PYR 300, MES 100, PYR + MES 300 + 90
  herbicidal effect (h.e.): 32%
Fallopia convolvulus; 31-48 DAA, # = 8, g a.c./ha: PYR 300, MES 100, PYR + MES 300 + 90
  herbicidal effect (h.e.): 27%
Fallopia convolvulus; POLCO 14-20 DAA 300 g a.c./ha
  PYR h.e.: 31%
Fallopia convolvulus; POLCO 14-20 DAA 600 g a.c./ha
  PYR h.e.: 34%
Fallopia convolvulus; POLCO 14-20 DAA 900 g a.c./ha
  PYR h.e.: 47%
Fallopia convolvulus; POLCO 24-31 DAA 300 g a.c./ha
  PYR h.e.: 29%
Fallopia convolvulus; POLCO 24-31 DAA 600 g a.c./ha
  PYR h.e.: 29%
Fallopia convolvulus; POLCO 24-31 DAA 900 g a.c./ha
  PYR h.e.: 43%
Hibiscus ternatus
  herbicidal effect (h.e.): 36%
Digitaria sanguinalis; [3]
  herbicidal effect (h.e.): 0%
Digitaria sanguinalis; [4]
  herbicidal effect (h.e.): 0%
Digitaria sanguinalis; [5]
  herbicidal effect (h.e.): 0%
Digitaria sanguinalis; [6]
  herbicidal effect (h.e.): 5%
Digitaria sanguinalis; [7]
  herbicidal effect (h.e.): 0%
Digitaria sanguinalis; [8]
  herbicidal effect (h.e.): 5%
Digitaria sanguinalis; [9]
  herbicidal effect (h.e.): 0%
Rumex obtusifolius; RUMOB 14-20 DAA 300 g a.c./ha
  PYR h.e.: 20%
Rumex obtusifolius; RUMOB 14-20 DAA 600 g a.c./ha
  PYR h.e.: 30%
Rumex obtusifolius; RUMOB 14-20 DAA 900 g a.c./ha
  PYR h.e.: 55%
Portulaca oleracea; 7-14 DAA
  herbicidal effect (h.e.): 30%
Portulaca oleracea; 18-28 DAA
  herbicidal effect (h.e.): 11%
Stachys arvensis
  herbicidal effect (h.e.): 35%
Echinochloa crus-galli; 7-14 DAA, # = 9
  herbicidal effect (h.e.): 20%
Echinochloa crus-galli; 18-28 DAA, # = 14
  herbicidal effect (h.e.): 23%
Echinochloa crus-galli; 31-48 DAA, # = 13
  herbicidal effect (h.e.): 23%
Echinochloa crus-galli; ECHCG 14-20 DAA 300 g a.c./ha
  PYR h.e.: 10%
Echinochloa crus-galli; ECHCG 14-20 DAA 600 g a.c./ha
  PYR h.e.: 23%
Echinochloa crus-galli; ECHCG 14-20 DAA 900 g a.c./ha
  PYR h.e.: 31%
Echinochloa crus-galli; ECHCG 24-31 DAA 300 g a.c./ha
  PYR h.e.: 0%
Echinochloa crus-galli; ECHCG 24-31 DAA 600 g a.c./ha
  PYR h.e.: 3%
Echinochloa crus-galli; ECHCG 24-31 DAA 900 g a.c./ha
  PYR h.e.: 20%
Setaria verticillata; SETVE 14-20 DAA 300 g a.c./ha
  PYR h.e.: 29%
Setaria verticillata; SETVE 14-20 DAA 600 g a.c./ha
  PYR h.e.: 47%
Setaria verticillata; SETVE 14-20 DAA 900 g a.c./ha
  PYR h.e.: 75%
Setaria verticillata; SETVE 24-31 DAA 300 g a.c./ha
  PYR h.e.: 29%
Setaria verticillata; SETVE 24-31 DAA 600 g a.c./ha
  PYR h.e.: 33%
Setaria verticillata; SETVE 24-31 DAA 900 g a.c./ha
  PYR h.e.: 60%
Cirsium arvense; 7-14 DAA
  herbicidal effect (h.e.): 23%
Cirsium arvense; 31-48 DAA
  herbicidal effect (h.e.): 49%
Sinapis arvensis
  herbicidal effect (h.e.): 57%
Bassia scoparia
  herbicidal effect (h.e.): 66%
Veronica persica [2]; 7-14 DAA, # = 4
  herbicidal effect (h.e.): 58%
Veronica persica [2]; 31-48 DAA, # = 5
  herbicidal effect (h.e.): 44%
Veronica persica [2]; VERPE 14-20 DAA 300 g a.c./ha
  PYR h.e.: 0%
Veronica persica [2]; VERPE 14-20 DAA 600 g a.c./ha
  PYR h.e.: 20%
Veronica persica [2]; VERPE 14-20 DAA 900 g a.c./ha
  PYR h.e.: 40%
Veronica persica [2]; VERPE 24-31 DAA 300 g a.c./ha
  PYR h.e.: 10%
Veronica persica [2]; VERPE 24-31 DAA 600 g a.c./ha
  PYR h.e.: 0%
Veronica persica [2]; VERPE 24-31 DAA 900 g a.c./ha
  PYR h.e.: 0%
